≈ marks a conversion by molar mass, not a printed value.
Assays:
[1] = Accelerated stability test; assay type: physicochemical; conditions: 40°C ± 2°C, relative humidity 75% ± 5%; for remaining at 730 h / remaining at 1460 h / remaining at 2190 h / remaining at 4380 h: storage 75% relative humidity, read-out: Content
[2] = test system: histamine-induced asthma in guinea pigs; assay: Antiasthmatic effect on histamine-induced asthma in guinea pigs (latency period); assay type: in vivo; conditions: X±s, n = 5; for Post-administration latency period: 1 mg/kg oral gavage, sixty minutes after administration, histamine hydrochloride spray, capped at 8 minutes
Experimental: The guinea pigs were placed in a polymethyl methacrylate bell jar and a histamine hydrochloride solution was sprayed ultrasonically (0.8 mg/mL) for 40 seconds. The time point at which the guinea pigs developed asthma was recorded. The time of convulsion and fall was taken as the latency period. Guinea pigs with a latency period exceeding 180 seconds were not selected. […] The guinea pigs were administered by oral gavage at a dose of 2 mL/kg·bw. Sixty minutes after the administration, the guinea pigs were placed in bell jars, and histamine hydrochloride solution was sprayed under the same conditions as in the previous selection. The latency period for the onset of asthma was recorded. […] The results were processed statistically.

[3] = Solubility of the compounds in water, methanol and isopropanol; assay type: physicochemical; conditions: for Solubility in Isopropanol: solvent isopropanol; for Solubility in Water: solvent water
Experimental: The solubility in water, methanol, and isopropanol of the compounds of the present disclosure and the comparative compounds were measured separately.

[4] = Antagonism of histamine-induced contraction of isolated ileal smooth muscle of guinea pigs; conditions: relative to tone after adding histamine; x±s, n = 8; 3 min
Experimental: (§1) The guinea pig was knocked unconscious with a wooden stick, and the abdomen was immediately dissected to separate the ileum about 15 cm in length. The contents of the intestinal segment were flushed with Tyrode's solution and placed in Tyrode's solution at a constant temperature of 37°C for later use, and oxygen was supplied simultaneously. The experimental intestinal tract (1 cm in length) was cut and placed into 20 ml of Tyrode's solution at a constant temperature of 37°C with a continuous oxygen supply. One end of the intestine was fixed on the ventilation hook and the other end was connected to the muscle tone transducer and led to the computer interface. The muscle tone value of the ileal smooth muscle was recorded with a BL system. The experiment was carried out after the intestinal segment contraction became stable.
(§2) After the ileal peristalsis curve stabilized, the tone values before adding the compound were recorded, and then 0.05 mL of histamine was added. […] The operation was repeated 8 times. The antispasmodic percentage was calculated using the following equation. Antispasmodic percentage =; (Tone value after adding histamine−Tone value after adding subject compound)/(Tone value after adding histamine) × 100% [formula]

[5] = test system: isolated ileal smooth muscle of guinea pigs; assay: Effect on muscle tone of isolated ileal smooth muscle of guinea pigs (no histamine added); conditions: X±s; for Antispasmodic percentage: relative to tone before adding compound, n = 8, 5 min; for Smooth muscle tone After administration: 5 minutes after adding drug
Experimental: as §1
After the ileum contraction curve stabilized, the tone values before adding the drug were recorded, then the drug or DMSO was added, and the average tone value of the ileum contraction curve at that point was recorded 5 minutes later. The operation was repeated 8 times. The antispasmodic percentage was calculated according to the following formula. Antispasmodic percentage =; (Tone value before adding subject compound−Tone value after adding subject compound)/(Tone value before adding subject compound); × 100% [formula]

histamine = assay: Antagonism of histamine-induced contraction of isolated ileal smooth muscle of guinea pigs; conditions: x±s, n = 8; for Smooth muscle tone After administration: 3 minutes after adding 0.05 mL compound following histamine
Experimental: as §1, §2

Row | Content ([1]; Month 0) [%] | Description ([1]; Month 0) | Related substances ([1]; Month 0) [%] | Description ([1]; Month 1) | Related substances ([1]; Month 1) [%] | Description ([1]; Month 2) | Related substances ([1]; Month 2) [%] | Description ([1]; Month 3) | Related substances ([1]; Month 3) [%] | Description ([1]; Month 6) | Related substances ([1]; Month 6) [%] | remaining at 730 h ([1]; Month 1) [%] | remaining at 1460 h ([1]; Month 2) [%] | remaining at 2190 h ([1]; Month 3) [%] | remaining at 4380 h ([1]; Month 6) [%] | Structure (SMILES) | Post-administration latency period [2] [s] | Antispasmodic percentage [4] [%] | Antispasmodic percentage ([5]; 5 min) [%] | Smooth muscle tone After administration (histamine) [g] | Smooth muscle tone After administration ([5]; n = 8) [g] | other results
1 | 99.7 | White powder | 0.03 | White powder | 0.05 | White powder | 0.10 | White powder | 0.15 | White powder | 0.34 | 99.7 | 99.6 | 99.5 | 99.2 | O=C1Cc2ccccc2C(=C2CCN(CCCOP(=O)(O)O)CC2)c2ccsc21 [Compound III-3] | 368.01 ± 50.67 | 66.66±15.49 | 30.23±17.82 |  |  | Solubility in Isopropanol [3]: 24 mg/mL (≈ 55.4 mM); Solubility in Water [3]: 20 mg/mL (≈ 46.1 mM)
2 |  |  |  |  |  |  |  |  |  |  |  |  |  |  |  | O=C1Cc2ccccc2C(=C2CCN(CCOCOP(=O)(O)O)CC2)c2ccsc21 [Compound III-6] | 370.03 ± 52.11 | 64.43±17.18 |  | 1.22 ± 0.23 | 1.14 ± 0.30 | Pre-administration latency period ([2]; baseline before administration, histamine hydrochloride 0.8 mg/mL sprayed 40 seconds): 98.68 ± 49.22 s; Smooth muscle tone After addition of histamine (histamine; after 0.05 mL histamine, before compound): 3.43 ± 0.92 g; Smooth muscle tone Before administration (histamine; baseline before histamine): 1.78 ± 0.20 g; Smooth muscle tone Before administration ([5]; baseline, n = 8): 1.71 ± 0.24 g; Antispasmodic percentage [5]: 33.33±19.04%
3 | 99.7 | White powder | 0.03 | White powder | 0.05 | White powder | 0.09 | White powder | 0.12 | White powder | 0.24 | 99.7 | 99.6 | 99.6 | 99.4 | O=C1Cc2ccccc2C(=C2CCN(COP(=O)(O)O)CC2)c2ccsc21 [Compound IV-1] | 368.83 ± 49.03 | 66.28±18.26 | 33.72±18.32 | 1.18 ± 0.24 | 1.14 ± 0.31 | 
4 | 99.7 | White powder | 0.03 | White powder | 0.05 | White powder | 0.09 | White powder | 0.12 | White powder | 0.25 |  |  |  |  | O=C1Cc2ccccc2C(=C2CCN(CCCOP(=O)(O)O)CC2)c2ccsc21 [Compound IV-3] | 371.38 ± 49.10 | 64.91±18.92 | 30.95±19.69 |  |  | Content ([1]; Month 1, 43800 min): 99.7%; Content ([1]; Month 2, 87600 min): 99.6%; Content ([1]; Month 3, 131400 min): 99.6%; Content ([1]; Month 6, 262800 min): 99.4%; Solubility in Isopropanol [3]: 1 mg/mL (≈ 2.31 mM)
5 | 99.7 | White powder | 0.03 | White powder | 0.05 | White powder | 0.09 | White powder | 0.12 | White powder | 0.25 | 99.7 | 99.6 | 99.6 | 99.4 | O=C1Cc2ccccc2C(=C2CCN(CCCCOP(=O)(O)O)CC2)c2ccsc21 [Compound IV-4] | 376.89 ± 51.43 | 65.40±19.07 | 30.59±19.00 | 1.19 ± 0.21 | 1.18 ± 0.26 | 
6 |  |  |  |  |  |  |  |  |  |  |  |  |  |  |  | O=C1Cc2ccccc2C(=C2CCN(CCCCCOP(=O)(O)O)CC2)c2ccsc21 [Compound IV-5] | 377.11 ± 50.43 | 65.61±19.34 | 33.72±19.05 | 1.20 ± 0.22 | 1.14 ± 0.30 | 
7 |  |  |  |  |  |  |  |  |  |  |  |  |  |  |  | O=C1Cc2ccccc2C(=C2CCN(CCCOCOP(=O)(O)O)CC2)c2ccsc21 [Compound IV-7] | 373.33 ± 52.76 | 65.99±19.08 | 33.52±19.74 | 1.17 ± 0.22 | 1.15 ± 0.25 | 
8 | 99.7 | White powder | 0.03 | White powder | 0.04 | White powder | 0.05 | White powder | 0.06 | White powder | 0.09 | 99.7 | 99.7 | 99.6 | 99.6 | O=C1Cc2ccccc2C(=C2CCN(CCCCOCOP(=O)(O)O)CC2)c2ccsc21 [Compound IV-8] | 370.23 ± 50.29 | 65.01±18.56 | 32.94±19.45 | 1.20 ± 0.25 | 1.14 ± 0.31 | 
9 |  |  |  |  |  |  |  |  |  |  |  |  |  |  |  | O=C1Cc2ccccc2C(=C2CCN(CCCCCOCOP(=O)(O)O)CC2)c2ccsc21 [Compound IV-9] | 369.11 ± 49.40 | 66.57±18.66 | 32.95±19.04 | 1.15 ± 0.26 | 1.16 ± 0.28 | 
10 |  |  |  |  |  |  |  |  |  |  |  |  |  |  |  | CN1CCC(=C2c3ccccc3CC(=O)c3sccc32)CC1 [Ketotifen] |  |  |  |  |  | Solubility in Water [3]: Practically insoluble

Row | Structure (SMILES) | Content ([1]; Month 0) [%] | Description ([1]; Month 0) | Related substances ([1]; Month 0) [%] | Description ([1]; Month 1) | Related substances ([1]; Month 1) [%] | Description ([1]; Month 2) | Related substances ([1]; Month 2) [%] | Description ([1]; Month 3) | Related substances ([1]; Month 3) [%] | Description ([1]; Month 6) | Related substances ([1]; Month 6) [%] | remaining at 730 h ([1]; Month 1) [%] | remaining at 1460 h ([1]; Month 2) [%] | remaining at 2190 h ([1]; Month 3) [%] | remaining at 4380 h ([1]; Month 6) [%] | Post-administration latency period [2] [s] | Antispasmodic percentage [4] [%] | Antispasmodic percentage ([5]; 5 min) [%] | Smooth muscle tone After administration (histamine) [g] | Smooth muscle tone After administration ([5]; n = 8) [g] | other results
11 | O=C1Cc2ccccc2C(=C2CCN(CCOP(=O)(O)O)CC2)c2ccsc21 [Compound IV-2] | 99.7 | White powder | 0.03 | White powder | 0.04 | White powder | 0.04 | White powder | 0.06 | White powder | 0.09 | 99.7 | 99.7 | 99.6 | 99.6 | 380.27 ± 50.25 | 66.95±17.07 |  | 1.14 ± 0.23 | 1.19 ± 0.31 | Antispasmodic percentage [5]: 30.40±18.50%
12 | O=C1Cc2ccccc2C(=C2CCN(CCOCOP(=O)(O)O)CC2)c2ccsc21 [Compound IV-6] | 99.7 | White powder | 0.03 | White powder | 0.05 | White powder | 0.09 | White powder | 0.12 | White powder | 0.25 | 99.7 | 99.6 | 99.6 | 99.4 | 370.56 ± 50.81 | 66.56±19.45 | 31.17±19.54 | 1.15 ± 0.20 | 1.17 ± 0.28 | 

— EP4559922A1, “ANTIHISTAMINE COMPOUND, PREPARATION METHOD THEREFOR AND USE THEREOF” (HC Synthetic Pharmaceutical Co., Ltd., priority 2022, dated 2024)
